Measured values: patent publication US10434199B2, “Picolinate cross-bridged cyclams, chelates with metallic cations and use thereof” (UNIVERSITÉ DE BRETAGNE OCCIDENTALE, priority 2013, dated 2019)

What was measured:
[1] = Potentiometric titrations: protonation constants of the ligands; type: physicochemical; settings: 25.0° C., 0.10M KNO3
Experimental: Equipment and work conditions. The potentiometric setup has been described in Roger, M. et al. Inorg. Chem. 2013, 52, 5246-5259. The titrant was a KOH solution prepared at ca. 0.1 M from a commercial ampoule of analytical grade, and its accurate concentration was obtained by application of the Gran's method upon titration of a standard HNO3 solution (Rossotti, F. J. and Rossotti, H. J. J. Chem. Educ. 1965, 42, 375-378). Ligand solutions were prepared at about 2.0×10^−3 M, and the Cu^2+ and Zn^2+ solutions at ca. 0.05 M from analytical grade nitrate salts and standardized by complexometric titrations with H4edta (ethylenediaminetetraacetic acid). Sample solutions for titration contained approximately 0.04 mmol of ligand in a volume of 30 mL where the ionic strength was kept at 0.10 M using KNO3 as background electrolyte. Metal cations were added at 0.9 equiv. of the ligand amount in complexation titrations. Batch titrations were prepared in a similar way but with each titration point corresponding to 1/10 of the amount of a conventional titration sample. Batch titration points were incubated in tightly closed vials at 25° C. until potential measurements attained complete stability, which happened within a week.
Measurements. All measurements were carried out at 25.0±0.1° C. under inert atmosphere. The electromotive force of the sample solutions was measured after calibration of the electrodes by titration of a standard HNO3 solution at 2.0×10^−3 M in the work conditions. The [H^+] of the solutions was determined by measurement of the electromotive force of the cell, E=E^o′+Q log [H^+]+Ej. The term pH is defined as −log [H^+]. E^o′ and Q were determined from the acid region of the calibration curves. Deviations from the Nernst law at very low pH (pH<2.5) were corrected with the VLpH software (Calibration software from the maker of Hyperquad available for free at http://www.hyperquad.co.uk/), which performs a [H^+] correction based on a very low pH calibration procedure. The liquid-junction potential, Ej, was otherwise found to be negligible for pH >2.5 under the experimental conditions used. […] Each titration consisted of 80-100 equilibrium points in the range of pH 2.5-11.5 (or 1.5-11.5 for Cu^2+ complexations), and at least two replicate titrations were performed for each particular system.
Calculations. […] The errors quoted are the standard deviations calculated by the fitting program from all the experimental data for each system.
The protonation constants of Hcb-te1pa were studied in aqueous solution at 25.0° C. The compound has five basic centers consisting of the four amines and the carboxylate function, from which only two could be accurately determined by potentiometric titrations (Table 1). […]

[2] = Copper(II) complex formation kinetics (UV-vis, buffered aqueous solutions); type: physicochemical; settings: for time to completion (>99%) of copper(II) complex formation: 25° C.
Experimental: Complex Formation. The formation of the copper(II) complex of Hcb-te1pa was studied in buffered aqueous solutions at 25° C. The increasing intensity of the complex d-d transition band in the visible range (600 nm) was followed at pH=5.0 (0.2 M potassium acetate buffer) and pH=7.4 (0.2 M HEPES buffer), with [Cu^2+]=[Hcb-te1pa]=0.8 mM. Additionally, complex formation was also studied at pH=3.0 (0.2 M (K,H)Cl) under pseudo-first order conditions, by following the increasing charge transfer band in the UV range (at 310 nm) at [Cu^2+]=10×[Hcb-te1pa]=2 mM.
The copper(II) complex formation with Hcb-te1pa was spectroscopically monitored in different buffered solutions from acidic to neutral pH. […] The reaction becomes progressively slower because of the increase of the acidity of the reaction media, enabling a kinetic study under pseudo-first order conditions using conventional UV-vis spectroscopic methods. In this work such kinetic study was performed at pH=3, which is at the lower limit of the pH range in which the copper(II) complexation is approximately complete under equilibrium in equimolar metal-to-ligand conditions.

**Q.** With `O=C(O)c1cccc(CN2CCCN3CCNCCCN(CC3)CC2)n1` [Hcb-te1pa, 6-(1,4,8,11-tetraazabicyclo[6.6.2]hexadecan-4-ylmethyl)picolinic acid] as the compound, how does the “log βi^H, L + 2 H^+ ⇌ H2L” value [1] read?
**A.** 25.13(5) log units

**Q.** And the “log βi^H, L + 3 H^+ ⇌ H3L” value [1]?
**A.** 27.56(5) log units

**Q.** And the “log βi^H, L + 4 H^+ ⇌ H4L” value [1]?
**A.** <29.56 log units

**Q.** What about the “log βi^H, L + H^+ ⇌ HL” value [1] of the same compound?
**A.** >15 log units

**Q.** What about the “a) metallation kinetics: time required for complete (>99%) Cu complexation” value ([2]; overview table) of the same compound?
**A.** 3 min

**Q.** And the “time to quantitative (>99%) formation of copper(II) complex” value ([2]; pH=3, pseudo-first order, excess of 10 equivalents of metal cation)?
**A.** ≤ 10 min

**Q.** What about the “time to completion (>99%) of copper(II) complex formation” value ([2]; pH=5, equimolar metal-to-ligand ratio) of the same compound?
**A.** ≤ 3 min

**Q.** What about the “time to completion (>99%) of copper(II) complex formation” value ([2]; physiological pH (7.4), equimolar metal-to-ligand ratio) of the same compound?
**A.** within a few seconds

**Q.** What about the copper chelated immediately ([2]; remaining copper chelated within a few seconds) of the same compound?
**A.** more than 90%
